Series [1] has as its target T1, human brain hexokinase (Homo sapiens, UniProt P19367).
T1 sequence (P19367 1-917): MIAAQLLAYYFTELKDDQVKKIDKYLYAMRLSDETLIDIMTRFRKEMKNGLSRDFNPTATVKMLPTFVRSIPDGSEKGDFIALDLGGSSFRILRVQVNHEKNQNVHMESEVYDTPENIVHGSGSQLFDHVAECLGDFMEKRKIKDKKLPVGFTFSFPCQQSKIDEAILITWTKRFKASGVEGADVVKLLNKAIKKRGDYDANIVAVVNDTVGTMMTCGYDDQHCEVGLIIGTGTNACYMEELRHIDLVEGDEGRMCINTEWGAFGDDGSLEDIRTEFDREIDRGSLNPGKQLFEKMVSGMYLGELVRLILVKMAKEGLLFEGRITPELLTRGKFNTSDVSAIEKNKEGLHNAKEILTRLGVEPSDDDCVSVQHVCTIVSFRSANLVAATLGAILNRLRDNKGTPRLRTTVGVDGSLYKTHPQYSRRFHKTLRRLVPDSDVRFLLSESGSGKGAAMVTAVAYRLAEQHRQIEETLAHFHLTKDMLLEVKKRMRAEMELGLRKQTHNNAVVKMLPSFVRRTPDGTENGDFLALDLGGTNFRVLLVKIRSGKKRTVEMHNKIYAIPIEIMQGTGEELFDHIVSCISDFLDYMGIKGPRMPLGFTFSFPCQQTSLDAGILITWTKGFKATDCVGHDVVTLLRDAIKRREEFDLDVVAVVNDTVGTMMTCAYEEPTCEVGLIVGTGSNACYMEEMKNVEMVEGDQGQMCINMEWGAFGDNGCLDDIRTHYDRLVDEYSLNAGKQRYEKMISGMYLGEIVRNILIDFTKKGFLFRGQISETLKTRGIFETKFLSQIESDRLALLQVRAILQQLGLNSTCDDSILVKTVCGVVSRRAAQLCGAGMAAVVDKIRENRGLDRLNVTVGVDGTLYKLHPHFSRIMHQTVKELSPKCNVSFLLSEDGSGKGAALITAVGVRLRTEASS
As to conditions: read-out: Km for glucose utilization by brain hexokinase, Michaelis constant; cited from earlier work.

Series [2] has as its system Rat Brain Hexokinase. In words: Competitive inhibition of rat brain hexokinase. Format: biochemical. Conditions: J. Neurochemistry 37: 1000 (1981). From the text: Rather than relying on indirect manipulative steps to avoid contrast agent diffusion to brain, there is a need for an inexpensive, reliable, direct mechanism to avoid central nervous system complications induced by the iodo-benzamido-glucopyranose x-ray contrast agents. Following intense pharmacological research into the biochemical activity of the contrast agents, typified by metrizamide, Applicant has discovered that such compounds interfere with glycolysis metabolism in the brain. […] This interference with the utilization of glucose, which normally serves as the obligatory energy source in the brain, may explain some of the depressive effects of intrathecally administered metrizamide and related compounds.

Series [3] relates to patients. As to conditions: cerebrospinal myelography patients; cited from earlier work.
The conditions of series [4]: reconstituted according to certain directions, at body temperature; cited from earlier work.
The target of series [5] is T1, human brain hexokinase. In words: Inhibition constant for human brain hexokinase. Format: biochemical. As to conditions: with respect to human brain hexokinase; competitive with glucose. Set-up: from tissue; host or cells: human brain. From the text: (§1) The appropriate amount of glucose to be combined with or to be coadministered with a selected iodo-benzamido-glucopyranose contrast agent can be determined by knowing the hexokinase inhibition constant (Ki) for a selected contrast agent. The ratio of the activity of an enzyme to its maximal activity (Vmax) in the presence of competitive inhibitors is given by the following formula: v/Vmax=[S]/([S]+Km(1+([I]/Ki)), where [S] is glucose concentration, [I] is inhibitor concentration, Km is the Michaelis constant for glucose utilization of hexokinase, and Ki is the inhibition constant for the contrast agent. With no inhibitor present, glucose utilization by human brain hexokinase is represented by a v/Vmax of 0.99 (the Km for glucose utilization by brain hexokinase is 0.05 mM, and typical spinal fluid contains 4 mM glucose).
In a routine myelographic procedure, 780 mM (300 mg I/ml) metrizamide is administered. Substituting this variable into the above Michaelis-Menten equation, one finds a v/Vmax of only 0.25. This value represents a significant reduction in glucose utilization. Even if the concentration of metrizamide were diluted tenfold by the time it reached the cerebral surfaces, a v/Vmax of only 0.77 is predicted. Reductions in glucose utilization ranging from 0.6 to 0.7 have been associated with varieties of stupor and coma in humans.

For series [6], the target named is T1, human brain hexokinase. Description: Calculated glucose utilization by brain hexokinase (v/Vmax, Michaelis-Menten equation with competitive inhibitor). Set-up: from tissue; host or cells: human brain.
From the text: as §1
In a routine myelographic procedure, 780 mM (300 mg I/ml) metrizamide is administered. Substituting this variable into the above Michaelis-Menten equation, one finds a v/Vmax of only 0.25. […]
However because metrizamide is a relatively weak competitive inhibitor of glucose, a small increase in glucose concentration can restore hexokinase-glucose utilization to an effective level. […] By solving for [S] it is calculated that an initial concentration of about 100 mM glucose is needed to counteract the effects of an intrathecal injection of 780 mM metrizamide. […]

Each structure is given as a SMILES string.

On to `OC[C@H]1OC(O)[C@H](O)[C@@H](O)[C@@H]1O` (stereo partly shown) [glucose], for which the Km in series [1] was 50 µM.

Consider `CC(=O)Nc1c(I)c(C(=O)N[C@H]2C(O)O[C@H](CO)[C@@H](O)[C@@H]2O)c(I)c(N(C)C(C)=O)c1I` (stereo partly drawn) [metrizamide, 2-[3-Acetamido-2,4,6-triiodo-5-(N-methylacetamido)benzamido]-2-deoxy-D-glucopyranose], for which the “mode of hexokinase inhibition” value in series [2] was “competes with glucose to inhibit hexokinase activity”. For the same compound, the “fraction of patients treated with temporary confusional state and EEG deterioration” value in series [3] was “about one-third”. In series [4], the specific gravity is 1.184. Besides, the Ki in series [5] turned out to be 2.5 mM. Also, the “v/Vmax (glucose utilization)” value was 0.25 in series [6] (780 mM (300 mg I/ml) metrizamide, routine myelographic procedure, typical spinal fluid 4 mM glucose) and 0.77 in series [6] (metrizamide concentration diluted tenfold by the time it reaches the cerebral surfaces).

These data come from patent US4455292A, “Radiological contrast composition and methods” (Board of Regents, the University of Texas System, priority 1982, dated 1984).
